These results are taken from article PMC6476176 (Ultrasound in medicine & biology, 2018).

Data set [1] in a line: Plasma T-20 concentration and pharmacokinetics in porcine model. In kind it is in vivo, Yorkshire pigs. Conditions: Yorkshire, pig, sc, 90 mg.
Data set [2] is described as follows: Histological analysis of skin samples. In kind it is in vivo, Yorkshire pigs. Conditions: pig.
For data set [3] the following is noted: cited from earlier work.
Setting [4] is: T-20 subcutaneous injection twice daily 29 days, n=12.

Read-outs that look alike come from different tables or passages of the source.

In data set [1], enfuvirtide gave an AUC(0-inf) of 43300 ng·h/mL, a Cmax of 6310 ng/mL, a half-life of 3.97 h and a tmax of 2.5 h. In addition, in data set [2] (in vivo), the “Skin irritation: Major, number of Subjects” value is recorded as 1; the “Skin irritation: Minor, number of Subjects” value amounted to 4; the “Skin irritation: None, number of Subjects” value turned out to be 7; the “Skin irritation: Similar to Eczema, number of Subjects” value turned out to be 1. The “Skin irritation: Major+ Necrosis, number of Subjects” value in data set [2] (in vivo, sc) turned out to be 3. Further, in data set [2] (setting [4]), the “Skin irritation: Major, number of Subjects” value worked out at 3; the “Skin irritation: Minor, number of Subjects” value came to 3; the “Skin irritation: None, number of Subjects” value was found to be 2; the “Skin irritation: Similar to Eczema, number of Subjects” value is 1. Moreover, in data set [3] (human, in vivo), the “AUC∞” value is given as 55.8 (22%) μg·h/mL, the Cmax is given as 4.59 (32%) μg/mL, the “Tmax humans (median)” value is 6.9 h and the “Tmax humans (range)” value is 3 to 12 h. Moreover, in data set [3] (human, in vivo), the tmax is listed as 6.92 (36%) h and the t½ is recorded as 3.80 (15%) h. Also, in data set [3] (human, ref Usa, 2012), the “typical human plasma Ctrough” value was 3300 ± 1600 ng/mL. For the same substance, in data set [3] (in vivo), the CI is listed as 1.68 (22%) L/h.
